What all share (format): functional, cell-based
Experiment [1] relates to HL-60. The experiment can be described thus: Decrease of HL60 cells at G0/G1 phase. The following applies: Homo sapiens.
The test system of experiment [2] is HL-60. The experiment can be described thus: Apoptosis inducing activity in human HL60 cells.
Experiment [3] relates to HL-60. The experiment can be described thus: Antiproliferative activity against human HL60 cells.
Experiment [4] concerns HL-60. Put plainly: Decrease of HL60 cells at G2/M phase. The following applies: Homo sapiens.
Experiment [5] deals with HL-60. The experiment can be described thus: Induction of apoptotic sub-G0/G1 phase in HL60 cells. The following applies: Homo sapiens.
The test system of experiment [6] is HL-60. The experiment can be described thus: Decrease of HL60 cells at S phase. The following applies: Homo sapiens.
In experiment [7] the test system is HL-60. The experiment can be described thus: Induction of partial block of S phase in HL60 cells. The note with it: Homo sapiens.

One may read the AC50 as the midpoint of the concentration-response curve, whichever way the signal moves. A high value points to weaker potency. A word on the IC50: it is the concentration at which inhibition is half-maximal.

Active and inactive are the calls of the source. The rule behind the calls is not given here.

On to `COc1ccc(/C=C\c2cc(OC)cc(OC)c2)cc1` [8Z-3,4',5-TRIMETHOXYSTILBENE], for which the result with HL-60 [1], in the experiment on HL-60 [4], in the experiment on HL-60 [5] and with HL-60 [6] was Active. In the experiment on HL-60 [2], this compound had an AC50 of 0.24 µM. This compound also showed an IC50 in the experiment with HL-60 [3] of 0.15 µM.
Turning to `COc1ccc(/C=C/c2cc(OC)cc(OC)c2)cc1`, the outcome in the experiment on HL-60 [7] and with HL-60 [5] was Active.
Take `COc1cccc(/C=C/c2cc(OC)cc(OC)c2)c1`: the AC50 in the experiment on HL-60 [2] was 70 µM. The compound further gave a concentration for half-maximal inhibition (IC50) in the experiment on HL-60 [3] of 37 µM.
On the same counts, the results for `Cc1ccc(/C=C/c2ccc(O)cc2)cc1C` are 6 µM and 3.5 µM.
Turning to `COc1cccc(/C=C\c2cc(OC)cc(OC)c2)c1`, the AC50 with HL-60 [2] was found to be 5.4 µM. This compound registered a half-maximal inhibitory concentration (IC50) with HL-60 [3] of 2.8 µM.
`COc1cc(/C=C\c2cc(OC)c(OC)c(OC)c2)cc(OC)c1`: the activity in the experiment with HL-60 [2] was half-maximal at 2.6 µM (AC50). Further, the outcome in the experiment with HL-60 [7] and with HL-60 [5] was Active. Further, 1.8 µM corresponded to half-maximal inhibition in the experiment on HL-60 [3] (IC50).
`COc1cc(/C=C/c2cc(OC)c(OC)c(OC)c2)cc(OC)c1`: the activity with HL-60 [2] was half-maximal at 42 µM (AC50). In addition, the IC50 in the experiment with HL-60 [3] amounted to 22 µM.
Consider `O=[N+]([O-])c1ccc(/C=C/c2ccc(O)cc2)cc1`, for which, in the experiment with HL-60 [2], the AC50 amounted to 4.8 µM. The outcome in the experiment on HL-60 [7] and with HL-60 [5] was Active. In addition, the IC50 with HL-60 [3] was 2.5 µM.

The values above are taken from ChEMBL document CHEMBL1147815, “Stilbene-based anticancer agents: resveratrol analogues active toward HL60 leukemic cells with a non-specific phase mechanism” (Bioorg Med Chem Lett, 2006).
